Source: patent US4648996A, “Phenyl substituted-2,4,6,8-nonatetraenoic acid” (Hoffmann-La Roche Inc., priority 1985, dated 1987)

What was measured:
in vivo = conditions: mouse
Description: The compounds of formulae I and II and salts thereof can be utilized to treat patients suffering from rheumatoid arthritis and related disorders.

[1] = system: MBSA delayed hypersensitivity in mice; test: Delayed hypersensitivity to methylated bovine serum albumin (MBSA); format: in vivo, Male and female MFI mice substrain E33; conditions: for % increase paw volume / % reduction (cf. arachis oil control): 10 doses
Description: Male and female MFI mice substrain E33. Initial weight approximately 25 gm.
Dosing with vehicle and retinoid commenced on day 0 and finished on day 9.
Each group consisted of 4 male and 6 female mice (separately caged). Drugs were dosed orally at a dose volume of 10 ml.kg^-1 (10 doses).

[2] = system: adjuvant arthritis in the rat; test: Developing adjuvant arthritis in the rat; format: in vivo, AHH/R Female rats (PVG derived); conditions: for Joint Mobility (% INC) / Lesion Score (% RDN): day 15; for % reduction of paw swelling, Primary (right): days 0-4; for % reduction of paw swelling, Secondary (left) / % reduction of paw swelling, Secondary (right): days 8-15
Description: AHH/R Female rats (PVG derived with an initial weight range of 110 to 140 g. were used.
Adjuvant for injection. An homogenized suspension of heat killed M tuberculosis (Human strains C, DT and PN), 5 mg.Ml^-1 in liquid paraffin was prepared.
Rats were randomly split into groups of five and adjuvant arthritis was induced by the sub-plantar injection of 0.1 ml of adjuvant suspension into the right hind paw of each rat. Test compounds were administered by intubation each morning commencing the day of adjuvant injection. Two groups of control rats were dosed with the vehicle as was a group of three normal rats included for comparative purposes. Dosing was carried out daily until the end of the test on day 15 except for the first weekend (days 5 & 6). Treatment groups are shown in Table III and include etretinate as standard retinoid.
Measurements of right hind paw volume were made initially and on days 2 and 4 after and adjufant injection (primary phase). Right and left hind paw volume were then measured, on day 8 and every two or three days until the end of the experiment on day 15 (secondary phase). At this time the mobility of each ankle joint and the incidence and severity of secondary lesions on nose, ears, forepaws, left hind paw and tail were also assessed in terms of degrees of flexion possible and by using an arbitrary scoring system, respectively.
The time course curves for the injected paws were integrated from days 0 to 4 to reflect primary swelling and from days 8 to 15 (secondary swelling). The secondary swelling in the non-injected paw was integrated similarly from days 8 to 15. Calculations were carried out using a specific computer program which computed mean ± se for each integrated area. The significance of differences from controls was determined by Student's t test (2 tailed) and percentage reductions from control areas were calculated. Percentage improvements in joint mobility and percentage reductions in lesion score were also determined. In the latter case the Wilcoxon rank sum test (2 tailed) was used to express the difference from the control score using raw data. Mean body weight change in each group was recorded.

[3] = system: established adjuvant arthritis in rats; test: Effect on the course of established adjuvant arthritis; format: in vivo, Male Lewis rats from Charles River; conditions: 100 mg/kg, 7 days
Description: Male Lewis rats from Charles River were used for these experiments.
Heat-killed, dessicated Mycobacteriam butyricum.
Adjuvant arthritis was induced by the injection of 0.1 ml of adjuvant [a suspension of heat-killed, dessicated Mycobacterium butyricum, 0.5% CW/V) in heavy mineral oil containing 0.2% digitonin] into the base of the tail. The arthritis was allowed to develop for 21 days and then the volume of both hind paws were measured using a mercury plethysmograph. The rats were divided into groups of 8 with equal mean paw volumes and then the rats were treated with Compound A, indomethacin (as a control drug), or vehicle for 7 days at the end of the treatment period, the volumes of both hind paws were again measured to assess antiinflammatory effects. Body weight changes were also followed and, at the end of the experiment, plasma was collected for determination of plasma fibrinogen (Exner et. al., Amer. J. Clin. Path, 71: 521-527).
^b Drugs were administered once a day for 7 days by intubation
^c Change in paw volume/body weight equals paw volume body weight on […]

SMILES: CCCCCCCCCOc1ccccc1/C=C/C(C)=C/C=C/C(C)=C/C(=O)O [Compound A, All(E)-9-[2(nonyloxy)phenyl]-3,7-dimethyl-2,4,6,8-nonatetraenoic acid]
- LD50 (in vivo; ip): > 1000 mg/kg
- LD50 (in vivo; po): > 1000 mg/kg
- % increase paw volume ([1]; 10 mg.kg^-1 oral): 102 ± 12%
- % reduction (cf. arachis oil control) ([1]; 10 mg.kg^-1 oral): 6%
- Mean body weight change ([1]; 10 mg.kg^-1 oral, female (F)): -0.2 g
- Mean body weight change ([1]; 10 mg.kg^-1 oral, male (M)): 3.3 g
- % increase paw volume ([1]; 30 mg.kg^-1 oral): 50 ± 7%
- % reduction (cf. arachis oil control) ([1]; 30 mg.kg^-1 oral): 54%
- Mean body weight change ([1]; 30 mg.kg^-1 oral, female (F)): 0.5 g
- Mean body weight change ([1]; 30 mg.kg^-1 oral, male (M)): 2.8 g
- % increase paw volume ([1]; 100 mg.kg^-1 oral): 40 ± 5%
- % reduction (cf. arachis oil control) ([1]; 100 mg.kg^-1 oral): 63%
- Mean body weight change ([1]; 100 mg.kg^-1 oral, female (F)): -0.2 g
- Mean body weight change ([1]; 100 mg.kg^-1 oral, male (M)): 3.3 g
- Joint Mobility (% INC) ([2]; 15 mg.kg^-1 p.o.): 66%
- Lesion Score (% RDN) ([2]; 15 mg.kg^-1 p.o.): 72%
- % reduction of paw swelling, Primary (right) ([2]; 15 mg.kg^-1 p.o.): -6%
- % reduction of paw swelling, Secondary (left) ([2]; 15 mg.kg^-1 p.o.): 94%
- % reduction of paw swelling, Secondary (right) ([2]; 15 mg.kg^-1 p.o.): 30%
- Joint Mobility (% INC) ([2]; 45 mg.kg^-1 p.o.): 66%
- Lesion Score (% RDN) ([2]; 45 mg.kg^-1 p.o.): 65%
- % reduction of paw swelling, Primary (right) ([2]; 45 mg.kg^-1 p.o.): 16%
- % reduction of paw swelling, Secondary (left) ([2]; 45 mg.kg^-1 p.o.): 75%
- % reduction of paw swelling, Secondary (right) ([2]; 45 mg.kg^-1 p.o.): 51%
- Plasma Fibrinogen [3]: 874 ± 57 mg/dL
- Change in Body Weight ([3]; day 28 minus day 22): 5.2 ± 2.1 g
- Change in Paw Volume ([3]; day 28 minus day 22, both hind paws): -0.96 ± 0.10 mL
